Laboratory results reported in US20170015718A1, “PRO-APOPTOTIC RAS AND RAF PEPTIDES” (UNIVERSITE PIERRE ET MARIE CURIE (PARIS 6), priority 2013, published 2017).

Columns and labels:
[1] = test system: colon cancer cell line HCT116; assay: Apoptosis of colon cancer cell line HCT116; type: cell-based; settings: 12.5 μM for 72 h
Ras/Raf interaction = assay: In vitro competition of Ras/Raf interaction (immunoprecipitation from cell lysates, blot); type: binding, Human; settings: 1.5 mM of peptides, 30 min, room temperature; FIGS. 2A, 2B
Experimental: FIGS. 2A and 2B show in vitro competition of Ras/Raf interaction. Cells were lysed for 20 min at 4° C. in lysis buffer (50 mM Tris (pH 8), 1% Nonidet P-40, 137 mM NaCl, 1 mM MgCl2, 1 mM CaCl2, 10% glycerol, and protease inhibitor mixture). Lysates (800 μg of protein) were immunoprecipitated with the appropriate Ab overnight at 4° C., and protein A-Sepharose was added for 1 h at 4° C. After washing with 1×TBST (20 mM Tris-HCl (pH 7.5), 150 mM NaCl, 0.05% Tween 20), the Ras/Raf interaction was competed using peptides Mut3DPT-Ras (A) or Mut3DPT-Raf+Mut3DPT-Raf2 (B) at a concentration of 1.5 mM for 30 min at room temperature. After a washing, immunoprecipitates were transferred to nitrocellulose and blotted with the corresponding Ab.
The Ras/Raf interaction was competed using peptides corresponding to the binding site of Ras to Raf and vice versa. Lysates from MDA-MB321 or BC52 cell lines were immunoprecipitated with anti-Ras or anti-Raf Ab, and protein A-Sepharose was added. The Ras/Raf interaction was competed with 1.5 mM of peptides (30 min, room temperature). After washing steps, immunoprecipitates were transferred to nitrocellulose and blotted with the corresponding Ab. Proteins were detected using the ECL system.

[2] = test system: K-Ras mutated cell line SW626; assay: Apoptosis by Annexin V-FITC staining, SW626; type: cell-based, Human; settings: SW626, 100 μM for 24 h; FIG. 3C
Experimental: FIGS. 3A to 3D show effect of peptides on apoptosis. A) MDA-MB231 cell line (mutated K-Ras) was cultured in the presence of the identified peptides at a concentration of 100 μM for 24 h. Apoptosis was detected by Annexin V-FITC staining and analyzed by flow cytometry. B) MDA-MB231 cell line was cultured as above, but to a concentration of 10 or 25 μM peptides. Apoptosis was estimated by annexin V-FITC staining. C) The K-Ras mutated cell line SW626 was cultured and analyzed as in A. D) The wild type K-RAs cell line BC 227 was cultured and analyzed as in A.
Apoptotic cells were detected using Annexin-V (-FITC from BD biosciences) as described by the manufacturer. Briefly, the cells were washed in 1× binding buffer, centrifugated and then resuspended in 200 μl of 1× binding buffer containing Annexin V-FITC (0.1 μg/ml) and PI (0.5 μg/ml). After incubation at room temperature in the dark for 10 min, cells were analyzed by flow cytometry. Data acquired by FACSCalibur (BD biosciences) were analyzed with Cellquest Pro software.

[3] = test system: primary tumor cells of chronic lymphocytic leukemia (CLL); assay: Apoptosis of primary tumor cells of chronic lymphocytic leukemia; type: cell-based

In the case of “VKKKKIKAEIKIHEHKGKKARLDWNTDAAS (chimeric peptide) [Mut3DPT-Raf2]”, the “apoptosis of HCT116” value [1] is reported as “cause apoptosis”.
For “VKKKKIKAEIKIKMSKDGKKKKKKSKTKCVIM (chimeric peptide) [Mut3DPT-Ras]”, the “competition of the Ras/Raf interaction in vitro” value (Ras/Raf interaction) was “able to compete in vitro the interaction Ras/Raf”, the apoptotic effect [2] was “lower level of apoptosis” and the “effect on CLL B and non-B cells” value [3] was “marked effect”.
